Test results taken from ChEMBL document CHEMBL5543175, “Discovery of Selective Proteolysis-Targeting Chimera Degraders Targeting PTP1B as Long-Term Hypoglycemic Agents” (J Med Chem, 2024).
Active and inactive are the calls of the source. The calls are words filed in the database; no cut-off is given here.

Experiments:
[1] = target: T1, Protein cereblon/Tyrosine-protein phosphatase non-receptor type 1 (Homo sapiens, UniProt P18031+Q96SW2); assay: PROTAC activity at PTP1B/CRBN in insulin treated human HepG2 cells assessed as protein degradation at 5000 nM incubated for 48 hrs by Western blot analysis relative to control; assay type: cell-based
Target sequence in this assay (P18031 whole entry, looked up): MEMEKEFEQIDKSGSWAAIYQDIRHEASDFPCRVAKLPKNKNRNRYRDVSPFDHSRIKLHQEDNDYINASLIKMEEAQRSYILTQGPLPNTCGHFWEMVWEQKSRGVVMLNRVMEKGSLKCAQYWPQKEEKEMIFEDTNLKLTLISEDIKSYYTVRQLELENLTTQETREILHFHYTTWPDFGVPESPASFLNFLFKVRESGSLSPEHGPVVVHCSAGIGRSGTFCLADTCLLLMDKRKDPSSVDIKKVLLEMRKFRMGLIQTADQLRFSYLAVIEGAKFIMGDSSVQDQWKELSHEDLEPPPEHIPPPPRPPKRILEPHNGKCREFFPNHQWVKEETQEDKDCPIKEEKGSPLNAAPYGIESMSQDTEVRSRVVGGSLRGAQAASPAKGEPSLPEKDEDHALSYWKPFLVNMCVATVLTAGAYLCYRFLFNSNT
Target sequence in this assay (Q96SW2 whole entry, looked up): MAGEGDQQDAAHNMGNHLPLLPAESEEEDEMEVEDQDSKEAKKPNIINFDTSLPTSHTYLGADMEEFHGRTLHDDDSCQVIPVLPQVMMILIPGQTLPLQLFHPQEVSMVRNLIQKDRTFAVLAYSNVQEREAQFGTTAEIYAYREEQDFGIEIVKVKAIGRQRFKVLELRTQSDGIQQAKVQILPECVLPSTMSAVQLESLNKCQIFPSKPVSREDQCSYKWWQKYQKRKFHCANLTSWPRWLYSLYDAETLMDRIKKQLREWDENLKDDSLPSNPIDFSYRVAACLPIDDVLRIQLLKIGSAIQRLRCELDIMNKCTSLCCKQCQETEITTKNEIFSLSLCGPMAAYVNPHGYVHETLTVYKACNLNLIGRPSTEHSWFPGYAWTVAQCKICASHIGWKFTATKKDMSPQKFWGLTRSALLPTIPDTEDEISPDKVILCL

Mus musculus [2] = assay: Anti-diabetic activity in KM mouse assessed as reduction in blood glucose measured for 0 to 120 mins at 40 mg/kg single dose by oral glucose tolerance test (oGTT) relative to control; assay type: functional; conditions: time 0-120 min
[3] = target: T1, Protein cereblon/Tyrosine-protein phosphatase non-receptor type 1; assay: PROTAC activity at PTP1B/CRBN in insulin treated human HepG2 cells assessed as protein degradation at 500 nM incubated for 48 hrs by Western blot analysis relative to control; assay type: cell-based
Target sequence in this assay (P18031 whole entry, looked up): as the sequence (P18031 whole entry, looked up) above
Target sequence in this assay (Q96SW2 whole entry, looked up): as the sequence (Q96SW2 whole entry, looked up) above

[4] = target: T1, Protein cereblon/Tyrosine-protein phosphatase non-receptor type 1; assay: PROTAC activity at PTP1B/CRBN in insulin treated human HepG2 cells assessed as protein degradation at 50 nM incubated for 48 hrs by Western blot analysis relative to control; assay type: cell-based
Target sequence in this assay (P18031 whole entry, looked up): as the sequence (P18031 whole entry, looked up) above
Target sequence in this assay (Q96SW2 whole entry, looked up): as the sequence (Q96SW2 whole entry, looked up) above

[5] = target: T1, Protein cereblon/Tyrosine-protein phosphatase non-receptor type 1; assay: PROTAC activity at PTP1B/CRBN in insulin treated human HepG2 cells assessed as protein degradation at 5 nM incubated for 48 hrs by Western blot analysis relative to control; assay type: cell-based
Target sequence in this assay (P18031 whole entry, looked up): as the sequence (P18031 whole entry, looked up) above
Target sequence in this assay (Q96SW2 whole entry, looked up): as the sequence (Q96SW2 whole entry, looked up) above

[6] = target: T1, Protein cereblon/Tyrosine-protein phosphatase non-receptor type 1; assay: PROTAC activity at PTP1B/CRBN in insulin treated human HepG2 cells assessed as protein degradation at 125 nM incubated for 72 hrs by Western blot analysis relative to control; assay type: cell-based
Target sequence in this assay (P18031 whole entry, looked up): as the sequence (P18031 whole entry, looked up) above
Target sequence in this assay (Q96SW2 whole entry, looked up): as the sequence (Q96SW2 whole entry, looked up) above

[7] = target: T1, Protein cereblon/Tyrosine-protein phosphatase non-receptor type 1; assay: PROTAC activity at PTP1B/CRBN in insulin treated human HepG2 cells assessed as protein degradation at 1 nM incubated for 72 hrs by Western blot analysis relative to control; assay type: cell-based
Target sequence in this assay (P18031 whole entry, looked up): as the sequence (P18031 whole entry, looked up) above
Target sequence in this assay (Q96SW2 whole entry, looked up): as the sequence (Q96SW2 whole entry, looked up) above

[8] = target: T1, Protein cereblon/Tyrosine-protein phosphatase non-receptor type 1; assay: PROTAC activity at PTP1B/CRBN in insulin treated human HepG2 cells assessed as protein degradation incubated for 72 hrs by Western blot analysis; assay type: cell-based
[9] = target: T1, Protein cereblon/Tyrosine-protein phosphatase non-receptor type 1; assay: PROTAC activity at PTP1B/CRBN in insulin treated human HepG2 cells assessed as protein degradation at 1250 nM incubated for 48 hrs by Western blot analysis relative to control; assay type: cell-based
[10] = target: T1, Protein cereblon/Tyrosine-protein phosphatase non-receptor type 1; assay: PROTAC activity at PTP1B/CRBN in insulin treated human HepG2 cells assessed as protein degradation incubated for 48 hrs by Western blot analysis; assay type: cell-based
[11] = target: T1, Protein cereblon/Tyrosine-protein phosphatase non-receptor type 1; assay: PROTAC activity at PTP1B/CRBN in insulin treated human HepG2 cells assessed as protein degradation at 1 nM incubated for 48 hrs by Western blot analysis relative to control; assay type: cell-based
[12] = target: T1, Protein cereblon/Tyrosine-protein phosphatase non-receptor type 1; assay: PROTAC activity at PTP1B/CRBN in insulin treated human HepG2 cells assessed as protein degradation at 5 nM incubated for 72 hrs by Western blot analysis relative to control; assay type: cell-based
[13] = target: T1, Protein cereblon/Tyrosine-protein phosphatase non-receptor type 1; assay: PROTAC activity at PTP1B/CRBN in insulin treated human HepG2 cells assessed as protein degradation at 625 nM incubated for 48 hrs by Western blot analysis relative to control; assay type: cell-based
[14] = target: T1, Protein cereblon/Tyrosine-protein phosphatase non-receptor type 1; assay: PROTAC activity at PTP1B/CRBN in insulin treated human HepG2 cells assessed as protein degradation at 1250 nM incubated for 72 hrs by Western blot analysis relative to control; assay type: cell-based
[15] = target: T1, Protein cereblon/Tyrosine-protein phosphatase non-receptor type 1; assay: PROTAC activity at PTP1B/CRBN in insulin treated human HepG2 cells assessed as protein degradation at 625 nM incubated for 72 hrs by Western blot analysis relative to control; assay type: cell-based
[16] = target: T1, Protein cereblon/Tyrosine-protein phosphatase non-receptor type 1; assay: PROTAC activity at PTP1B/CRBN in insulin treated human HepG2 cells assessed as protein degradation at 25 nM incubated for 72 hrs by Western blot analysis relative to control; assay type: cell-based
[17] = target: T1, Protein cereblon/Tyrosine-protein phosphatase non-receptor type 1; assay: PROTAC activity at PTP1B/CRBN in insulin treated human HepG2 cells assessed as protein degradation at 25 nM incubated for 48 hrs by Western blot analysis relative to control; assay type: cell-based
[18] = target: T1, Protein cereblon/Tyrosine-protein phosphatase non-receptor type 1; assay: PROTAC activity at PTP1B/CRBN in insulin treated human HepG2 cells assessed as protein degradation at 125 nM incubated for 48 hrs by Western blot analysis relative to control; assay type: cell-based
HepG2 [19] = assay: Hypoglycemic activity in human HepG2 cells assessed as upregulation of PI3K expression at 250 to 500 nM incubated for 24 hrs by Western blot analysis; assay type: functional, cell-based; conditions: dose 250-500 nM
Mus musculus [20] = assay: Anti-diabetic activity in KM mouse assessed as reduction in area under the curve of blood glucose measured for 0 to 120 mins at 40 mg/kg single dose by oral glucose tolerance test (oGTT); assay type: functional; design: scale not given: the % may be the effect or the level left; conditions: time 0-120 min
Mus musculus [21] = assay: Anti-diabetic activity in KM mouse assessed as reduction in area under the curve of blood glucose measured for 0 to 120 mins at 10 mg/kg single dose by oral glucose tolerance test (oGTT); assay type: functional; design: scale not given: the % may be the effect or the level left; conditions: time 0-120 min
[22] = target: T1, Protein cereblon/Tyrosine-protein phosphatase non-receptor type 1; assay: PROTAC activity at PTP1B/CRBN in insulin treated human HepG2 cells assessed as protein degradation at 250 to 500 nM incubated for 24 hrs by Western blot analysis; assay type: cell-based; conditions: dose 250-500 nM
[23] = target: Protein cereblon/Receptor-type tyrosine-protein phosphatase C (Homo sapiens) (UniProt P08575+Q96SW2); assay: PROTAC activity at CD45/CRBN in insulin treated human HepG2 cells assessed as protein degradation at 250 to 500 nM incubated for 24 hrs by Western blot analysis; assay type: cell-based; conditions: dose 250-500 nM
HepG2 [24] = assay: Hypoglycemic activity in human HepG2 cells assessed as upregulation of Akt phosphorylation at 250 to 500 nM incubated for 24 hrs by Western blot analysis; assay type: functional, cell-based; conditions: dose 250-500 nM
[25] = target: T1, Protein cereblon/Tyrosine-protein phosphatase non-receptor type 1; assay: PROTAC activity at PTP1B/CRBN in insulin treated human HepG2 cells assessed as protein degradation at 100 nM incubated for 24 hrs in presence of MG-132 by Western blot analysis; assay type: cell-based
HepG2 [26] = assay: Hypoglycemic activity in human HepG2 cells assessed as upregulation of IRS-1 expression at 250 to 500 nM incubated for 24 hrs by Western blot analysis; assay type: functional, cell-based; conditions: dose 250-500 nM
[27] = target: T1, Protein cereblon/Tyrosine-protein phosphatase non-receptor type 1; assay: PROTAC activity at PTP1B/CRBN in insulin treated human HepG2 cells assessed as protein degradation at 100 nM incubated for 24 hrs in presence of […] by Western blot analysis; assay type: cell-based
[28] = target: T1, Protein cereblon/Tyrosine-protein phosphatase non-receptor type 1; assay: PROTAC activity at PTP1B/CRBN in insulin treated human HepG2 cells assessed as protein degradation half life at 500 nM by Western blot analysis; assay type: cell-based
Mus musculus [29] = assay: Anti-diabetic activity in KM mouse assessed as reduction in area under the curve of blood glucose measured for 0 to 120 mins at 20 mg/kg single dose by oral glucose tolerance test (oGTT); assay type: functional; design: scale not given: the % may be the effect or the level left; conditions: time 0-120 min
[30] = target: T1, Protein cereblon/Tyrosine-protein phosphatase non-receptor type 1; assay: PROTAC activity at PTP1B/CRBN in insulin treated human HepG2 cells assessed as protein degradation at 100 nM incubated for 24 hrs in presence of pomalidomide by Western blot analysis; assay type: cell-based
[31] = target: Protein cereblon/Tyrosine-protein phosphatase non-receptor type 22 (Homo sapiens) (UniProt Q9Y2R2+Q96SW2); assay: PROTAC activity at LYP/CRBN in insulin treated human HepG2 cells assessed as protein degradation at 250 to 500 nM incubated for 24 hrs by Western blot analysis; assay type: cell-based; conditions: dose 250-500 nM
[32] = target: Protein cereblon/Tyrosine-protein phosphatase non-receptor type 6 (Homo sapiens) (UniProt P29350+Q96SW2); assay: PROTAC activity at SHP1/CRBN in insulin treated human HepG2 cells assessed as protein degradation at 250 to 500 nM incubated for 24 hrs by Western blot analysis; assay type: cell-based; conditions: dose 250-500 nM
[33] = target: Protein cereblon/Tyrosine-protein phosphatase non-receptor type 11 (Homo sapiens) (UniProt Q06124+Q96SW2); assay: PROTAC activity at SHP2/CRBN in insulin treated human HepG2 cells assessed as protein degradation at 250 to 500 nM incubated for 24 hrs by Western blot analysis; assay type: cell-based; conditions: dose 250-500 nM

Sequence of Protein cereblon/Tyrosine-protein phosphatase non-receptor type 22 (Homo sapiens) (Q96SW2 whole entry, looked up): as above
Sequence of Protein cereblon/Tyrosine-protein phosphatase non-receptor type 22 (Homo sapiens) (Q9Y2R2 whole entry, looked up): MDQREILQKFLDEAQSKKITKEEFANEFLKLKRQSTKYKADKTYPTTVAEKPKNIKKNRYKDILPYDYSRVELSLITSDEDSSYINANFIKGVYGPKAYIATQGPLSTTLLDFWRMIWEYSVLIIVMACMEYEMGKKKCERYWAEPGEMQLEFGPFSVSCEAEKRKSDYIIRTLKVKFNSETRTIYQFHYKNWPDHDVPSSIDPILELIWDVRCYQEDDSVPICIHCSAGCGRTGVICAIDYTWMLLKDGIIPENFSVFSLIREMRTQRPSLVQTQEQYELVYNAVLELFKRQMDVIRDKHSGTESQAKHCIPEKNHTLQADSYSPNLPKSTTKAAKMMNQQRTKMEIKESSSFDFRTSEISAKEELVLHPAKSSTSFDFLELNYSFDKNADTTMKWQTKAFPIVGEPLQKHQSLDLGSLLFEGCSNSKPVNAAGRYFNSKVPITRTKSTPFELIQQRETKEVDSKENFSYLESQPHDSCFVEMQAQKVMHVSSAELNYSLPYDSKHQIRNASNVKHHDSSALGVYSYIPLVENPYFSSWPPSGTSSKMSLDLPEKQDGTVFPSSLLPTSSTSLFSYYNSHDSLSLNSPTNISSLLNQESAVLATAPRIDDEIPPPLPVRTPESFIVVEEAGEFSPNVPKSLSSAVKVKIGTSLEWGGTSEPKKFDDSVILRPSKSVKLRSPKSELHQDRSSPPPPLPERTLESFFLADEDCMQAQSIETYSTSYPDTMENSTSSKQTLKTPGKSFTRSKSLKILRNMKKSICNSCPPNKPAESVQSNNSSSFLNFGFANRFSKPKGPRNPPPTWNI
Sequence of Protein cereblon/Receptor-type tyrosine-protein phosphatase C (Homo sapiens) (P08575 whole entry, looked up): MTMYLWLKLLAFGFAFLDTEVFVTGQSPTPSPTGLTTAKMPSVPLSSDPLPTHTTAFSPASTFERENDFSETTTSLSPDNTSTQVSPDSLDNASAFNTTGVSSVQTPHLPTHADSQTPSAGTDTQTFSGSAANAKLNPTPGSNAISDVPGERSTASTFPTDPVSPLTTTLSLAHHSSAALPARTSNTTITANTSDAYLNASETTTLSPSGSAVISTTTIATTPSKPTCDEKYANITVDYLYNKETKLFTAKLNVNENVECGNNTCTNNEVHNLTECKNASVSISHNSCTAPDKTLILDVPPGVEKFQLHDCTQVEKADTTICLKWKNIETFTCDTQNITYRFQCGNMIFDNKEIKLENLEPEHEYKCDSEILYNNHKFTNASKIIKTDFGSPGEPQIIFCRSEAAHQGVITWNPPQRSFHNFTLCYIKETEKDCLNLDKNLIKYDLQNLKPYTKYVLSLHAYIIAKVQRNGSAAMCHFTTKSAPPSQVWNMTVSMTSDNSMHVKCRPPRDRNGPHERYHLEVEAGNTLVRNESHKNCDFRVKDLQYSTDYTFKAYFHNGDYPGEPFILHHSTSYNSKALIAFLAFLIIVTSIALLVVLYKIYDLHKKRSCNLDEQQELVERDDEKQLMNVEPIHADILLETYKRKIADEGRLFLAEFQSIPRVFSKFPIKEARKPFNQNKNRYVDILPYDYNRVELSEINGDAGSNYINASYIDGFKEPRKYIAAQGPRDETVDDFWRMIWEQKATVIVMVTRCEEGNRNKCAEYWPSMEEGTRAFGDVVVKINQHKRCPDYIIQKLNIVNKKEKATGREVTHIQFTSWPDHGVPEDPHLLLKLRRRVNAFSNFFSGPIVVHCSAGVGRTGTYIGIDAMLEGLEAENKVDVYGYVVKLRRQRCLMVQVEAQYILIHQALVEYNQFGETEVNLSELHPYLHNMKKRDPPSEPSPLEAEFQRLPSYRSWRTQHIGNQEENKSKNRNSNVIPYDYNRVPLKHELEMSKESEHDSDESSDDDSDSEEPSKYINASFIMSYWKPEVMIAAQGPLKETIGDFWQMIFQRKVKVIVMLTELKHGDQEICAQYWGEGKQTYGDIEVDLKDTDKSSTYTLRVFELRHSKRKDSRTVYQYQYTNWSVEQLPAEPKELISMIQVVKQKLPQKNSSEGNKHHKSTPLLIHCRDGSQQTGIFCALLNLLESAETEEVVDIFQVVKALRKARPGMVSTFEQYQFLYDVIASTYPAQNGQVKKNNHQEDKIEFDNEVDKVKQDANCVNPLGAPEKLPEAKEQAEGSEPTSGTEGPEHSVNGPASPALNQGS
Sequence of Protein cereblon/Receptor-type tyrosine-protein phosphatase C (Homo sapiens) (Q96SW2 whole entry, looked up): as the sequence (Q96SW2 whole entry, looked up) above

Row | Activity [1] | Activity [3] | Activity [4] | Activity [5] | Activity [6] | Activity [7] | Activity [8] | DC50 [8] | Activity [9] | Activity [10] | DC50 [10] | Activity [11] | Activity [12] | Activity [13] | Activity [14] | Activity [15] | Activity [16] | Activity [17] | Activity [18] | Compound | inhibition in vivo at 40 mg/kg (Mus musculus [2]) | also measured
1 | 36% | 29% | 51% | 37% | – | – | – | – | – | – | – | – | – | – | – | – | – | – | – | C[C@H]1[C@H](C)CC[C@]2(C(=O)NCCCOCCOCCOCCCNc3cccc4c3C(=O)N(C3CCC(=O)NC3=O)C4=O)CC[C@]3(C)C(=CC[C@@H]4[C@@]5(C)CC[C@H](O)C(C)(C)[C@@H]5CC[C@]43C)[C@H]12 (stereo not given in full) | 15.3% | –
2 | < 5% | 53% | 46% | 83% | 55% | 33% | Dose-Dependent Effect | 40 nM | 77% | Dose-Dependent Effect | 250 nM | 8% | 57% | 21% | 56% | 49% | 50% | 33% | 17% | C[C@H]1[C@H](C)CC[C@]2(C(=O)NCCCCCCOCCOCCOCC(=O)Nc3cccc4c3C(=O)N(C3CCC(=O)NC3=O)C4=O)CC[C@]3(C)C(=CC[C@@H]4[C@@]5(C)CC[C@H](O)C(C)(C)[C@@H]5CC[C@]43C)[C@H]12 (stereo not given in full) | 18.3% | –
3 | 20% | 27% | 20% | 51% | 58% | < 5% | Dose-Dependent Effect | 50 nM | 71% | Dose-Dependent Effect | 200 nM | 8% | 40% | 43% | 48% | 43% | 58% | 51% | 46% | CC1(C)CC[C@]2(C(=O)NCCCCCCOCCOCCOCCOCCCCCC(=O)Nc3cccc4c3C(=O)N(C3CCC(=O)NC3=O)C4=O)CC[C@]3(C)C(=CC[C@@H]4[C@@]5(C)CC[C@H](O)C(C)(C)[C@@H]5CC[C@]43C)[C@@H]2C1 (stereo not given in full) | 29% | Activity (HepG2 [19]): Active; Activity (Mus musculus [20]): 21.8%; Activity (Mus musculus [21]): 8.6%; Activity [22]: 100%; Activity [23]: inactive; Activity (HepG2 [24]): Active; Activity [25]: inactive; Activity (HepG2 [26]): Active; Activity [27]: inactive; T1/2 [28]: 4 h; Activity (Mus musculus [29]): 14.8%; Activity [30]: Active; Activity [31]: inactive; Activity [32]: inactive; Activity [33]: inactive
